# Test results published in US8933071B2, “Dimethyl fasudil for inducing polyploidization of megakaryocytes and for treating blood and bone marrow diseases and disorders” (Northwestern University, priority 2008, dated 2015).
# Entries after “also recorded” stand apart in the source; their conditions may differ.
# Legend:
# GIME cells = test: Polyploidization of GIME cells (DNA content by flow cytometry); type: cell-based; settings: GIME cells, 48 hours, DAPI, flow cytometry
# Method: (A) Y10, (B) GIME, and (C) CMK cells were grown in the presence of TPO, SU6656, or vehicle (DMSO) for 72 hours. DNA content was measured by flow cytometry. The percentages of cells that reach a DNA content of ≧8N are boxed in A and C, those equal to 8N are boxed in B. D) CMK cells were grown as in (C), and cell numbers were enumerated at 0, 24, 48 and 72 h.
# DNA content was then assessed by flow cytometry. Numbers above the bar indicate % of cells ≧8N. b) After 48 hours, GIME cells from a) were stained with anti-CD42 antibodies and the cell surface expression of CD42 was evaluated by flow cytometry.
# To study how megakaryocytes switch from a proliferative to endomitotic cell cycle, the Src kinase inhibitor SU6656 is being utilized.
# [1] = test system: CD41-cells (all other cell types); type: cell-based, human; settings: ET patient bone marrow, 5 days
# Method: (§1) Referring to FIG. 5, bone marrow mononuclear cells from a patient with ET were cultured with two doses of DMF for 10 days.
# Mononuclear cells from bone marrow of patients were obtained by informed consent from patients at Northwestern Feinberg School of Medicine. Mononuclear cells were separated from marrow with Ficoll (GE Healthcare life sciences, Piscataway, N.J.) and resuspended in IMDM (Iscove's Modified Dulbecco's Media) media without serum. The cells were stained with 0.4% trypan blue solution for 5 minutes and live cells were counted. Live cells were assayed in CFU-MK (“Colony forming units-megakaryocytes”) and BFU-E (“Burst forming unit-erythroid”) assays as well as in liquid culture.
# Liquid culture. Marrow cells from ET patients were also cultured in RPMI with 10% FBS in the presence of recombinant human TPO (thrombopoeitin, 50 ng/ml). […] After 5 days, the cells were collected and stained with APC (allophycocyanin) labeled anti-human CD41 antibody (BD Biosciences San Jose, Calif.). The cells were then stained overnight with 1 μg/mL 4′,6-diamidinio-2-phenylindole (DAPI). DNA content of both CD41+ cells and CD41-negative cells was analyzed by utilizing a BD LSRII flow cytometer (BD Biosciences San Jose, Calif.).
# [2] = test system: erythroid colonies in human MPD bone marrow cultures; type: cell-based; settings: ET patient bone marrow, 14 days
# Method: as §1
# MPDs Patient Specimens. Mononuclear cells from bone marrow of patients were obtained by informed consent from patients at Northwestern Feinberg School of Medicine. Mononuclear cells were separated from marrow with Ficoll (GE Healthcare life sciences, Piscataway, N.J.) and resuspended in IMDM (Iscove's Modified Dulbecco's Media) media without serum. The cells were stained with 0.4% trypan blue solution for 5 minutes and live cells were counted. Live cells were assayed in CFU-MK (“Colony forming units-megakaryocytes”) and BFU-E (“Burst forming unit-erythroid”) assays as well as in liquid culture.
# BFU-E (Burst forming unit-erythroid) assay. Live ET bone marrow cells were added to MethoCult media (4436, StemCell Technologies, Vancouver, BC, Canada) with recombinant human EPO (erythropoeitin, 3 U/mL), recombinant human SCF (stem cell factor, 50 ng/mL), recombinant human GM-CSF (granulocyte macrophage colony-stimulating factor, 10 ng/mL) and recombinant human IL-3 (10 ng/mL). […] Cells were plated in duplicate in 35 mm culture dishes according the manufacturer's protocol. On the 14th day, red colonies composed of hemoglobinized erythroblasts were identified and scored.
# [3] = test system: 6133/MPL megakaryocytic leukemia cells; test: 6133/MPL transplant model of AMKL, pre-treatment of cells; type: in vivo, C57B1/6 mice
# Excerpt: FIG. 9 illustrates that DMF blocks the development of AMKL in vivo. a) Histology of spleens from control and 6133/MPL transplanted mice at 20 days. b) Survival analysis of the effect of DMF pre-treatment on AMKL development in recipient mice. p<0.0005 (Log rank test). N=6 mice (vehicle (DMSO) pre-treatment) or N=7 (DMF pre-treatment) per group.
# To determine whether polyploidization-inducing agents can serve as new therapies for AMKL, we established an AMKL animal model. We developed an animal model of AMKL by transplanting 6133/MPL megakaryocytic leukemia cells (35) into sub-lethally irradiated recipient C57B1/6 mice. The parental 6133 cell line, which is dependent upon TPO for survival, was derived from a leukemic mouse that expressed the AMKL t(1:22) fusion protein OTT-MAL by knock-in gene targeting. 6133 cells were then transduced with a MPLW515L expressing retrovirus, and stable TPO-independent clones were isolated. We discovered that C57B1/6 mice transplanted with 1 million 6133/MPL cells developed a fulminant AMKL within 21 days. The disease was characterized by massive infiltration of CD41+ cells in the bone marrow and spleen. These mice will be utilized as animal models to quantify the effect of small molecule inducers of polyploidization on disease progression in vivo.
# To determine whether polyploidization-inducing agents can serve as new therapies for AMKL, DMF was assessed in an animal model for AMKL. To this end, an animal model of AMKL was developed by transplanting 6133/MPL megakaryocytic leukemia cells into sub-lethally irradiated recipient C57B1/6 mice. The parental 6133 cell line, which is dependent upon TPO for survival, was derived from a leukemic mouse that expressed the AMKL t(1:22) fusion protein OTT-MAL by knock-in gene targeting (35). […]
# C57BL/6 mice (purchased from the Jackson Laboratory, Bar Harbor, Me.) were sub-lethally irradiated with 600 rads. […] Development of disease was assessed with presence of GFP-positive cells in the peripheral blood by FACS and by monitoring the health and body weight of the animals. […]
# [4] = test system: 6133/MPL megakaryocytic leukemia cells; test: 6133/MPL transplant model of AMKL, oral gavage treatment; type: in vivo, C57B1/6 mice; settings: for lifespan: from day 3
# Method: FIG. 10 illustrates that DMF prevents AMKL in vivo. N=7 per group. […] transplant recipients were treated with two daily doses of vehicle, 33 mg/kg DMF, or 66 mg/kg DMF by oral gavage. Treatment with 33 or 66 mg/kg DMF led to statistically significant extensions in leukemia free survival (p=0.003 and 0.004 respectively).
# To determine whether polyploidization-inducing agents can serve as new therapies for AMKL, DMF was assessed in an animal model for AMKL. To this end, an animal model of AMKL was developed by transplanting 6133/MPL megakaryocytic leukemia cells into sub-lethally irradiated recipient C57B1/6 mice. The parental 6133 cell line, which is dependent upon TPO for survival, was derived from a leukemic mouse that expressed the AMKL t(1:22) fusion protein OTT-MAL by knock-in gene targeting (35). 6133 cells were then transduced with a MPLW515L expressing retrovirus, and stable TPO-independent clones were isolated. […] The disease was characterized by massive infiltration of CD41^+ cells in the bone marrow and spleen.
# After 3 days, the mice were treated with twice daily doses of DMF for 10 days. Seven mice were utilized per experimental condition. […] With 66 mg/kg nearly 50% of the mice remained disease free for at least 70 days. In contrast, all of mice fed only water (vehicle) died of leukemia by 20 days.
# C57BL/6 mice (purchased from the Jackson Laboratory, Bar Harbor, Me.) were sub-lethally irradiated with 600 rads. Mice were then anesthetized by an IP injection of mixture of Ketamine (100 mg/kg) and xylazine (5 mg/kg) 2 hours after irradiation. C57/B16 mice were intravenously injected with 1×10^6 6133/MPL cells, which were labeled with green fluorescent protein (GFP). Two different doses of DMF (33 mg/kg or 66 mg/kg) or water were administered to mice by oral gavage twice daily (b.i.d.) starting on the 3rd day after transplantation. For pre-treatment model, 6133/MPL cells were incubated with 5 μM DMF or DMSO for 24 hours. Live cells treated with DMF or […] were separated with Ficoll and transplanted into sub-lethally irradiated mice. Development of disease was assessed with presence of GFP-positive cells in the peripheral blood by FACS and by monitoring the health and body weight of the animals. Mice were sacrificed based on a protocol that includes assessment of morbidity by >20% loss of weight, severe anemia, scruffy appearance, and/or severe lethargy.
substance,measurement,setting,value
dimethylfasudil [DMF],induction of polyploidization,GIME cells,potent inducers
same,induction of polyploidization,GIME cells; listed as Rho-kinase inhibitor,potent inducer of polyploidization
same,effect on CD41-cells (all other cell types),[1],no effect
same,formation of aberrant erythroid colonies,[2],potently blocked formation
same,development/progression of AMKL in recipient mice,[3]; 6133/MPL cells pre-treated with 5 μM for 24 hours before transplant,interfered with their ability to cause a tumor; also recorded: striking and significant delay in progression of AMKL
same,time mice healthy with no signs of disease,[3]; all mice implanted with cells pre-treated with 5 μM for 24 hours,at least 200 days
same,survival analysis p (Log rank test),[3]; pre-treatment vs vehicle (DMSO) pre-treatment,< 0.0005
same,leukemia free survival p,[4]; 33 mg/kg by oral gavage vs vehicle,0.003
same,lifespan,[4]; 33 mg/kg twice daily oral gavage for 10 days,significant extensions in lifespan
same,leukemia free survival p,[4]; 66 mg/kg by oral gavage vs vehicle,0.004
same,mice remaining disease free for at least 70 days,[4]; 66 mg/kg twice daily oral gavage,~50%
same,lifespan,[4]; 66 mg/kg twice daily oral gavage for 10 days,significant extensions in lifespan
same,long-term survival of mice,[4]; feeding to mice,up to 50%
